{"source": "patent US8178688B2", "about": "“Benzamidine derivatives, process for the preparation thereof and pharmaceutical composition comprising the same” (Dong Wha Pharmaceutical Co., Ltd., priority 2004, dated 2012)", "key": {"[1]": {"tested_on": "osteoclast differentiation", "test": "Inhibitory effects on osteoclast differentiation (co-culture of bone marrow cells with osteoblast, TRAP staining)", "type": "cell-based, mice", "conditions": "co-culture of bone marrow cells and osteoblast, 7 days, TRAP-positive osteoclasts versus controls; for inhibition at 1 µM: Mus musculus, Osteoclast, 168 h, read-out: % inhibitory activity on osteoclastogenesis", "outline": "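Percent inhibition versus control is based on microscope counts of TRAP-positive osteoclasts (3 or more nuclei) after 7 days of compound exposure. Cultures paired ddY mouse marrow cells with ICR calvarial osteoblasts, driven by dexamethasone 10^−7M plus vitamin D3 10^−8M, with medium and compound changed every 2–3 days.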"}, "osteoblast": {"tested_on": "osteoblast", "test": "Effect on bone formation (osteoblast nodule mineralization, Alizarin red S)", "type": "cell-based, ICR mice", "conditions": "calvarial osteoblast in osteogenic differentiation medium", "protocol": "The osteoblast, treated in this experiment, was prepared from the osteoblast as prepared in the above.\nThe osteoblast, isolated from sequential enzymatic treatment of calvariae from neonated ICR mice, was cultured in α-MEM medium containing 10% FBS for 4˜5 days. The osteoblast was also cultured for 24 hr after seeding the cells on a 12 well plate (10^5 cell/well), and medium was exchanged with the osteogenic differentiation medium containing 10 mM β-glycerophosphate and 50 μg/ml ascorbic acid.\nThe test substances at the concentration of 0.1 uM and 0.1 nM were added to the above medium for evaluating the effect promoting bone formation. The differentiation medium containing the test substances was exchanged every 3 or 4 days for 14 to 21 days until confirming the nodule mineralization.\nThe cell was rinsed twice with distilled water, and fixed by the 10% formalin solutions for 30 minutes. Alizarin red S and Von-kossa Solution were treated on the plate for measuring deposited calcium and phosphate in cell matrix, and the activity of the test substances on the bone formation was analyzed by determining stained area.\nAdditionally, for the purpose of estimating quantitative Arizarin red S in cell matrix, stained Arizarin red S was extracted by treating 10 mM sodium phosphate solution (pH 7.0), containing 10% cetylpyridinium chloride, for 15˜30 minutes in the shaking incubator, and then the amount of the deposited calcium was estimated by calculating the absorbance of the extracted Arizarin red S at 564 nm. […]"}, "cells": {"tested_on": "cells", "test": "Cytotoxicity test (MTT)", "type": "cell-based", "conditions": "10^−6M, 72 hrs, compared with the control group", "outline": "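Benzamidine derivatives were checked for cytotoxicity with an MTT assay. Test substances were diluted in a suitable solvent to 10^−2M. Cells were seeded at 1×10^4 cell/100 μL per well in 96-well microplates and grown for 72 hrs. During the final 4 hrs, 25 μL of MTT (2 mg/mL in PBS) was added. Plates were then centrifuged, the medium removed, formazan dissolved in 100 μL DMSO, and absorbance read at 540 nm.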"}}, "note": "Like-named read-outs stand apart in the source and are kept apart here."}
{"smiles": "CCCN(CCC)c1nc(-c2ccc(OCCCCCOc3ccc(C(=N)NO)cc3)cc2)c(CC)s1", "note": "[Example 138, N-hydroxy-4-(5-[4-(2-dipropylamino-5-ethyl-1,3-thiazol-4-yl)phenoxy]pentoxy)-benzamidine]", "values": [{"measurement": "inhibition at 1 µM", "setting": "[1]; 1 m", "value": 91, "unit": "%"}, {"measurement": "bone forming activity (%)", "setting": "osteoblast; 0.1 nM", "value": 8.81, "unit": "%"}, {"measurement": "bone forming activity (%)", "setting": "osteoblast; 0.1 μM", "value": 6.32, "unit": "%"}]}
{"smiles": "Cc1sc(-c2cccnc2)nc1-c1ccc(OCCCCCOc2ccc(C(=N)NO)cc2)cc1", "note": "[Example 13, N-hydroxy-4-(5-[4-(5-methyl-2-pyridin-3-yl-1,3-thiazol-4-yl)phenoxy]pentoxy)-benzamidine]", "values": [{"measurement": "melting point", "value": "138 to 150", "unit": "°C"}, {"measurement": "inhibition at 1 µM", "setting": "[1]; 1 μm", "value": 73.5, "unit": "%"}]}
{"smiles": "CC(C)c1nc(-c2ccc(OCCCCCOc3ccc(C(=N)NO)cc3)cc2)c(CC2CCCC2)s1", "note": "[Example 47, N-hydroxy-4-(5-[4-(5-cyclopentylnnethyl-2-isopropyl-1,3-thiazol-4-yl)phenoxy]pentoxy)-benzamidine]", "values": [{"measurement": "Survival rates of the cells", "setting": "cells; MC3T3-E1 cells", "value": 54.2, "unit": "%"}, {"measurement": "Survival rates of the cells", "setting": "cells; ST2 cells", "value": 24.0, "unit": "%"}, {"measurement": "% inhibitory activity on osteoclastogenesis", "setting": "[1]; 1 μm", "value": 90.0, "unit": "%"}, {"measurement": "bone forming activity (%)", "setting": "osteoblast; 0.1 nM", "value": 9.4, "unit": "%"}, {"measurement": "bone forming activity (%)", "setting": "osteoblast; 0.1 μM", "value": 11.31, "unit": "%"}]}
